Laboratory results published in patent US20230263825A1, “ANTI-CANCER ACTIVITY OF PERBORATE SALTS” (priority 2020, published 2023).

Assay: Toxicology in rats, oral, histopathology
Type: in vivo
Settings: rat, in vivo, po
Text: After 32 days, the rats were sacrificed and their organs were examined under a microscope.

O.O.O.O.[Na+].[O-]B1OO1 [sodium perborate tetrahydrate]
0/10: LUNG Lymphocytic infiltration, No Exam (1 mg/kg) | LUNG Notable or abnormal, No Exam (1 mg/kg) | LUNG Pulmonary edema, No Exam (1 mg/kg) | PANCREAS Notable or abnormal, No Exam (1 mg/kg) | SPLEEN Notable or abnormal, No Exam (1 mg/kg) | STOMACH Notable or abnormal, No Exam (1 mg/kg) | HEART Notable or abnormal, No Exam (2 mg/kg) | INTESTINE, Large Notable or abnormal, No Exam (2 mg/kg) | INTESTINE, Small Notable or abnormal, No Exam (2 mg/kg) | KIDNEY Edema, No Exam (2 mg/kg) | KIDNEY Notable or abnormal, No Exam (2 mg/kg) | LIVER Fattening, No Exam (2 mg/kg) | LIVER Infiltration, No Exam (2 mg/kg) | LIVER Notable or abnormal, No Exam (2 mg/kg) | LUNG Lymphocytic infiltration, No Exam (2 mg/kg) | LUNG Notable or abnormal, No Exam (2 mg/kg) | LUNG Pulmonary edema, No Exam (2 mg/kg) | PANCREAS Notable or abnormal, No Exam (2 mg/kg) | SPLEEN Notable or abnormal, No Exam (2 mg/kg) | STOMACH Notable or abnormal, No Exam (2 mg/kg) | HEART Notable or abnormal, No Exam (4 mg/kg) | INTESTINE, Large Notable or abnormal, No Exam (4 mg/kg) | INTESTINE, Small Notable or abnormal, No Exam (4 mg/kg)
10/10: LIVER Within normal limits, No Exam (1 mg/kg) | LUNG Within normal limits, No Exam (1 mg/kg) | PANCREAS Within normal limits, No Exam (1 mg/kg) | SPLEEN Within normal limits, No Exam (1 mg/kg) | STOMACH Within normal limits, No Exam (1 mg/kg) | HEART Within normal limits, No Exam (2 mg/kg) | INTESTINE, Large Within normal limits, No Exam (2 mg/kg) | INTESTINE, Small Within normal limits, No Exam (2 mg/kg) | KIDNEY Within normal limits, No Exam (2 mg/kg) | LIVER Within normal limits, No Exam (2 mg/kg) | LUNG Within normal limits, No Exam (2 mg/kg) | PANCREAS Within normal limits, No Exam (2 mg/kg) | SPLEEN Within normal limits, No Exam (2 mg/kg) | STOMACH Within normal limits, No Exam (2 mg/kg) | HEART Within normal limits, No Exam (4 mg/kg) | INTESTINE, Large Within normal limits, No Exam (4 mg/kg) | INTESTINE, Small Within normal limits, No Exam (4 mg/kg)
100%: LIVER Within normal limits, % (1 mg/kg) | LUNG Within normal limits, % (1 mg/kg) | PANCREAS Within normal limits, % (1 mg/kg) | SPLEEN Within normal limits, % (1 mg/kg) | STOMACH Within normal limits, % (1 mg/kg) | HEART Within normal limits, % (2 mg/kg) | INTESTINE, Large Within normal limits, % (2 mg/kg) | INTESTINE, Small Within normal limits, % (2 mg/kg) | KIDNEY Within normal limits, % (2 mg/kg) | LIVER Within normal limits, % (2 mg/kg) | LUNG Within normal limits, % (2 mg/kg) | PANCREAS Within normal limits, % (2 mg/kg) | SPLEEN Within normal limits, % (2 mg/kg) | STOMACH Within normal limits, % (2 mg/kg) | HEART Within normal limits, % (4 mg/kg) | INTESTINE, Large Within normal limits, % (4 mg/kg) | INTESTINE, Small Within normal limits, % (4 mg/kg)
0%: LUNG Lymphocytic infiltration, % (1 mg/kg) | LUNG Notable or abnormal, % (1 mg/kg) | LUNG Pulmonary edema, % (1 mg/kg) | PANCREAS Notable or abnormal, % (1 mg/kg) | SPLEEN Notable or abnormal, % (1 mg/kg) | STOMACH Notable or abnormal, % (1 mg/kg) | HEART Notable or abnormal, % (2 mg/kg) | INTESTINE, Large Notable or abnormal, % (2 mg/kg) | INTESTINE, Small Notable or abnormal, % (2 mg/kg) | KIDNEY Edema, % (2 mg/kg) | KIDNEY Notable or abnormal, % (2 mg/kg) | LIVER Fattening, % (2 mg/kg) | LIVER Infiltration, % (2 mg/kg) | LIVER Notable or abnormal, % (2 mg/kg) | LUNG Lymphocytic infiltration, % (2 mg/kg) | LUNG Notable or abnormal, % (2 mg/kg) | LUNG Pulmonary edema, % (2 mg/kg) | PANCREAS Notable or abnormal, % (2 mg/kg) | SPLEEN Notable or abnormal, % (2 mg/kg) | STOMACH Notable or abnormal, % (2 mg/kg) | HEART Notable or abnormal, % (4 mg/kg) | INTESTINE, Large Notable or abnormal, % (4 mg/kg) | INTESTINE, Small Notable or abnormal, % (4 mg/kg) | KIDNEY Edema, % (4 mg/kg)
